This is an account of results in patent publication US6486190B1, “5-(2-imidazolinylamino)-benzimidazole derivatives, their preparation and their use as α-adrenoceptor agonists with improved metabolic stability” (The Procter & Gamble Company, priority 1997, dated 2002).

A short description of data set [1]: pharmacokinetic studies in primates: parent and N-methyl metabolite in urine after oral dosing. The data set is classed as in vivo, cynomolgus monkeys. The procedure: For the pharmacokinetic studies, the compounds are administered orally to cynomolgus monkeys and measurements of administered benzimidazole compounds and corresponding N-methyl metabolites are made using 100 μL aliquots of urine collected over various time-periods post-dose. Typically, a chemical homolog or stable-isotope-labeled internal standard is added to each sample and then diluted 100× in water. Ten μL of prepared sample is then analyzed by gradient HPLC, with tandem mass spectrometry detection. Single ion reaction monitoring schemes are employed to selectively detect the test compound, its N-methyl metabolite (if present), and the internal standard.

Data set [2] is described as follows: precision cut liver slice assay (metabolic stability, N-methylation). To be noted: for metabolic N-methylation (N-methyl metabolites): in these assays: precision cut liver slice assay and pharmacokinetic studies in primates. It is filed as in vitro ADME. The method, then: Metabolic stability of the compounds described above is evaluated in vitro in a precision cut liver slice assay and in vivo in pharmacokinetic studies in primates. The precision cut liver slice assay is a well recognized, validated in vitro model to study xenobiotic metabolism in animal species and humans. (See Ekins, S. “Past, present, and future applications of precision-cut liver slices for in vitro xenobiotic metabolism.” (Department of Medicine and Therapeutics, University of Aberdeen, UK.) Drug-Metab-Rev. (November, 1996) Vol. 28, No. 4: pp. 591-623). […] The assay provides data on the biotransformations taking place within intact hepatocytes of the species of interest. Thus the full compliment of phase I and phase II metabolic enzymes are available to metabolize the drug as is the case in vivo.

Data set [3] concerns alpha-2 adrenoceptors. Description: alpha-2 adrenergic activity and selectivity (receptor binding affinities and in vitro functional potencies). It is filed as biochemical. The procedure:
(§1) The pharmacological activity and selectivity of these compounds can be determined using published test procedures. […] (See, e.g., The Alpha-2 Adrenergic Receptors, L. E. Limbird, ed., Humana Press, Clifton, N.J.) The following in vivo assays are typically conducted in rodents or other species. Central nervous system activity is determined by measuring locomotor activity as an index of sedation. (See, e.g., Spyraki, C. & H. Fibiger, “Clonidine-induced Sedation in Rats: Evidence for Mediation by Postsynaptic Alpha-2 Adrenoreceptors”, Journal of Neural Transmission, Vol. 54 (1982), pp. 153-163). Nasal decongestant activity is measured using rhinomanometry as an estimate of nasal airway resistance. […] Antiglaucoma activity is determined by measuring intraocular pressure. […] Antidiarrheal activity is determined by measuring the ability of the compounds to inhibit prostaglandin-induced diarrhea. […] Efficacy in treating irritable bowel syndrome is determined by measuring the ability of compounds to reduce the stress-induced increase in fecal output. […] Antiasthma activity is determined by measuring the effect of the compound on bronchoconstriction associated with pulmonary challenges such as inhaled antigens. […] Activity in cough is determined by measuring the number and latency of the cough response to respiratory challenges such as inhaled citric acid. […]

Data set [4] has as its system central nervous system. As to the kind of experiment: central nervous system activity (locomotor activity as an index of sedation). Details: species or system rodents. To be noted: in vivo. The procedure:
as §1

Read-outs that look alike come from different tables or passages of the source.

`CCc1c(NC2=NCCN2)ccc2[nH]cnc12` [4-ethyl-5-(2-imidazolinylamino)benzimidazole]: the N-methylation in primates result in data set [1] was “rapidly and extensively N-methylated”. Besides, in data set [2], the “metabolic N-methylation (N-methyl metabolites)” value is “N-methyl metabolites were found”. Besides, the “alpha-2 adrenergic activity (pharmacological profile)” value in data set [3] is on record as “selective alpha-2 adrenergic agonist”.
As for `Cc1c(NC2=NCCN2)ccc2[nH]cnc12` [5-(2-Imidazolinylamino)-4-methylbenzimidazole], the CNS activity result in data set [4] is on record as “very low CNS activity”. Besides, in data set [2], the “metabolic N-methylation (N-methyl metabolites)” value is reported as “N-methyl metabolites were found”. The “metabolism / methyl metabolite formation” value in data set [2] (precision cut liver slice assay) was “rapidly metabolized”. The “alpha-2 adrenergic activity (pharmacological profile)” value in data set [3] was “very potent and selective alpha-2 adrenergic agonists”.
On to `Cc1c(N=C2NCCN2)cc(C#N)c2[nH]cnc12` [Example 1, 7-Cyano-5-(2-imidazolinylamino)-4-methylbenzimidazole], for which the CNS activity entry in data set [4] is listed as “very low CNS activity”. Also, the “metabolism / methyl metabolite formation” value in data set [2] is on record as “no evidence of the methyl metabolite”.
